Patent US11229623B2 (GlaxoSmithKline Intellectual Property (No.2) Limited, priority 2016, dated 2022)

These compounds were tested against T1, human TRPV4 (Homo sapiens, UniProt Q9HBA0) (assay: FLIPR assay for hTRPV4 expressed in BHK cells: inhibition of Agonist Compound-induced calcium signal). Conditions: hTRPV4 in BHK/AC9 cells, FLIPR calcium signal, agonist at EC80; reported as range class; read-out: IC50.
T1 construct: expressed in transfected cells; host or cells: BHK/AC9 cells transduced with BacMam virus
Assay type: cell-based
How it was run: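 Calcium influx through TRPV4 tracked by Fluo-4 fluorescence on FLIPR. Cells: BHK/AC9 transduced with BacMam-hTRPV4 at MOI 78, 24 h culture post-plating (15,000 cells/well). Dye loading: 2 μM Fluo-4 AM with 500 μM Brilliant Black quencher, 1-1.5 h, room temperature, dark.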

T1 sequence (Q9HBA0 whole entry): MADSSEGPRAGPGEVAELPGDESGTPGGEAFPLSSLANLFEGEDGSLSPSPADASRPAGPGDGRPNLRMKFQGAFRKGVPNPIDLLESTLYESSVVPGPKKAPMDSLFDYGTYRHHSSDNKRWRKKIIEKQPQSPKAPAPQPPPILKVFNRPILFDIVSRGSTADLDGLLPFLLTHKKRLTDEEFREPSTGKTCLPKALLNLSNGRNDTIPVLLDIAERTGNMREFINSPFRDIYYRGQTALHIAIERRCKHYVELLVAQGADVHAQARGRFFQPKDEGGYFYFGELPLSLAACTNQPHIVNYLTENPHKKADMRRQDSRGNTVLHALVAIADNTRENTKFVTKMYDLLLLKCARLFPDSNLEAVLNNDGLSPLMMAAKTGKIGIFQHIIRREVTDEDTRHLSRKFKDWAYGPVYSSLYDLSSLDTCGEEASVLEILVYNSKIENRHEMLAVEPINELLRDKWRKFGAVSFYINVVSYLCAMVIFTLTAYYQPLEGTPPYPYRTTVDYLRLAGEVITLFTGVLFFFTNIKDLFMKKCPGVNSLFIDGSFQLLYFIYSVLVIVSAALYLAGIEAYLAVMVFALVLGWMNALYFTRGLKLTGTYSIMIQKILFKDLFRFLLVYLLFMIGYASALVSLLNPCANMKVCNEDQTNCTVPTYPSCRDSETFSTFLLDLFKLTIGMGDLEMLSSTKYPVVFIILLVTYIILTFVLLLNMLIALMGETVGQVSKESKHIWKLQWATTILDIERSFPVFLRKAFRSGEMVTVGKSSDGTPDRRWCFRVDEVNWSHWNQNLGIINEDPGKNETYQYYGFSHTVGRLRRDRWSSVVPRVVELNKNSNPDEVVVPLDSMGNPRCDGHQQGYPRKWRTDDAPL

Row | SMILES | IC50 [nM]
1 | N#Cc1ccc(O[C@H]2CN(S(=O)(=O)c3ccc(Cl)c(OC(F)(F)F)c3)C[C@@]2(O)CO)cc1F [Example 129, 4-(((3S,4R)-1-((4-chloro-3-(trifluoromethoxy)phenyl)sulfonyl)-4-hydroxy-4-(hydroxymethyl)pyrrolidin-3-yl)oxy)-2-fluorobenzonitrile] | 10 to 100
2 | N#Cc1ccc(O[C@H]2CN(S(=O)(=O)c3ccc(I)cn3)C[C@@]2(O)CO)cc1F [Example 130, 2-fluoro-4-(((3S,4R)-4-hydroxy-4-(hydroxymethyl)-1-((5-iodopyridin-2-yl)sulfonyl)pyrrolidin-3-yl)oxy)benzonitrile] | 10 to 100
3 | Cc1nc(C#N)ccc1S(=O)(=O)N1C[C@H](Oc2ccc(C#N)c(F)c2)[C@](O)(CO)C1 [Example 131, 5-(((3R,4S)-4-(4-cyano-3-fluorophenoxy)-3-hydroxy-3-(hydroxymethyl)pyrrolidin-1-yl)sulfonyl)-6-methylpicolinonitrile] | 10 to 100
4 | N#Cc1ccc(O[C@H]2CN(S(=O)(=O)c3cccc(OC(F)(F)F)n3)C[C@@]2(O)CO)cc1F [Example 132, 2-fluoro-4-(((3S,4R)-4-hydroxy-4-(hydroxymethyl)-1-((6-(trifluoromethoxy)pyridin-2-yl)sulfonyl)pyrrolidin-3-yl)oxy)benzonitrile] | 10 to 100
5 | N#Cc1ccc(O[C@H]2CN(S(=O)(=O)c3ccc(OCC(F)(F)F)nn3)C[C@@]2(O)CO)cc1F [Example 133, 2-fluoro-4-(((3S,4R)-4-hydroxy-4-(hydroxymethyl)-1-((6-(2,2,2-trifluoroethoxy)pyridazin-3-yl)sulfonyl)pyrrolidin-3-yl)oxy)benzonitrile] | 10 to 100
6 | N#Cc1ccc(O[C@H]2CN(S(=O)(=O)c3cccc(OC(F)F)n3)C[C@@]2(O)CO)cc1F [Example 134, 4-(((3S,4R)-1-((6-(difluoromethoxy)pyridin-2-yl)sulfonyl)-4-hydroxy-4-(hydroxymethyl)pyrrolidin-3-yl)oxy)-2-fluorobenzonitrile] | 10 to 100
7 | N#Cc1ccc(O[C@H]2CN(S(=O)(=O)c3ccc(C(F)(F)F)cc3C#N)C[C@]2(O)CO)cc1F [Example 135, 4-(((3S,4S)-1-((2-cyano-4-(trifluoromethyl)phenyl)sulfonyl)-4-hydroxy-4-(hydroxymethyl)pyrrolidin-3-yl)oxy)-2-fluorobenzonitrile] | 0.1 to 10
8 | N#Cc1ccc(O[C@H]2CN(S(=O)(=O)c3ccc(Cl)cn3)C[C@]2(O)CO)cc1F [Example 136, 4-(((3S,4S)-1-((5-chloropyridin-2-yl)sulfonyl)-4-hydroxy-4-(hydroxymethyl)pyrrolidin-3-yl)oxy)-2-fluorobenzonitrile] | 100 to 1000
9 | N#Cc1ccc(O[C@H]2CN(S(=O)(=O)c3ccccc3C#N)C[C@]2(O)CO)cc1F [Example 137, 4-(((3S,4S)-1-((2-cyanophenyl)sulfonyl)-4-hydroxy-4-(hydroxymethyl)pyrrolidin-3-yl)oxy)-2-fluorobenzonitrile] | 10 to 100
10 | N#Cc1ccc(O[C@H]2CN(S(=O)(=O)c3ccc(F)cc3C#N)C[C@]2(O)CO)cc1F [Example 138, 4-(((3S,4S)-1-((2-cyano-4-fluorophenyl)sulfonyl)-4-hydroxy-4-(hydroxymethyl)pyrrolidin-3-yl)oxy)-2-fluorobenzonitrile] | 0.1 to 10
11 | N#Cc1ccc(O[C@H]2CN(S(=O)(=O)c3ccc(Cl)cc3C#N)C[C@]2(O)CO)cc1F [Example 139, 4-(((3S,4S)-1-((4-chloro-2-cyanophenyl)sulfonyl)-4-hydroxy-4-(hydroxymethyl)pyrrolidin-3-yl)oxy)-2-fluorobenzonitrile] | 0.1 to 10
12 | N#Cc1ccc(O[C@H]2CN(S(=O)(=O)c3cccnc3C#N)C[C@]2(O)CO)cc1F [Example 140, 3-(((3S,4S)-4-(4-cyano-3-fluorophenoxy)-3-hydroxy-3-(hydroxymethyl)pyrrolidin-1-yl)sulfonyl)picolinonitrile] | 10 to 100
13 | N#Cc1ccc(S(=O)(=O)N2C[C@H](Oc3ccc(C#N)c(F)c3)[C@@](O)(CO)C2)c(Cl)c1 [Example 141, 4-(((3S,4S)-1-((2-chloro-4-cyanophenyl)sulfonyl)-4-hydroxy-4-(hydroxymethyl)pyrrolidin-3-yl)oxy)-2-fluorobenzonitrile] | 10 to 100
14 | N#Cc1ccc(O[C@H]2CN(S(=O)(=O)c3ccc(Cl)cc3Cl)C[C@]2(O)CO)cc1F [Example 142, 4-(((3S,4S)-1-((2,4-dichlorophenyl)sulfonyl)-4-hydroxy-4-(hydroxymethyl)pyrrolidin-3-yl)oxy)-2-fluorobenzonitrile] | 10 to 100
15 | N#Cc1ccc(O[C@H]2CN(S(=O)(=O)c3ccc(Br)cc3C#N)C[C@]2(O)CO)cc1F [Example 143, 4-(((3S,4S)-1-((4-bromo-2-cyanophenyl)sulfonyl)-4-hydroxy-4-(hydroxymethyl)pyrrolidin-3-yl)oxy)-2-fluorobenzonitrile] | 0.1 to 10
16 | N#Cc1ccc(O[C@H]2CN(S(=O)(=O)c3ccc(F)cc3Br)C[C@]2(O)CO)cc1F [Example 144, 4-(((3S,4S)-1-((2-bromo-4-fluorophenyl)sulfonyl)-4-hydroxy-4-(hydroxymethyl)pyrrolidin-3-yl)oxy)-2-fluorobenzonitrile] | 10 to 100
17 | COc1ccc(S(=O)(=O)N2C[C@H](Oc3ccc(C#N)c(F)c3)[C@@](O)(CO)C2)c(C#N)c1 [Example 145, 4-(((3S,4S)-1-((2-cyano-4-methoxyphenyl)sulfonyl)-4-hydroxy-4-(hydroxymethyl)pyrrolidin-3-yl)oxy)-2-fluorobenzonitrile] | 10 to 100
18 | N#Cc1cc(C(F)(F)F)ccc1S(=O)(=O)N1C[C@H](Oc2ccc(Cl)cc2)[C@@](O)(CO)C1 [Example 146, 2-(((3S,4S)-4-(4-chlorophenoxy)-3-hydroxy-3-(hydroxymethyl)pyrrolidin-1-yl)sulfonyl)-5-(trifluoromethyl)benzonitrile] | 10 to 100
19 | N#Cc1cc(F)ccc1S(=O)(=O)N1C[C@H](Oc2ccc(Cl)cc2)[C@@](O)(CO)C1 [Example 147, 2-(((3S,4S)-4-(4-chlorophenoxy)-3-hydroxy-3-(hydroxymethyl)pyrrolidin-1-yl)sulfonyl)-5-fluorobenzonitrile] | 10 to 100
20 | N#Cc1cc(C(F)(F)F)ccc1S(=O)(=O)N1C[C@H](Oc2ccc(C(F)(F)F)cc2)[C@@](O)(CO)C1 [Example 148, 2-(((3S,4S)-3-hydroxy-3-(hydroxymethyl)-4-(4-(trifluoromethyl)phenoxy)pyrrolidin-1-yl)sulfonyl)-5-(trifluoromethyl)benzonitrile] | 10 to 100
21 | N#Cc1cc(F)ccc1S(=O)(=O)N1C[C@H](Oc2ccc(C(F)(F)F)cc2)[C@@](O)(CO)C1 [Example 149, 5-fluoro-2-(((3S,4S)-3-hydroxy-3-(hydroxymethyl)-4-(4-(trifluoromethyl)phenoxy)pyrrolidin-1-yl)sulfonyl)benzonitrile] | 10 to 100
22 | N#Cc1ccc(S(=O)(=O)N2C[C@H](Oc3ccc(C(F)(F)F)cc3)[C@](O)(CO)C2)c(Cl)c1 [Example 150, 3-chloro-4-(((3R,4S)-3-hydroxy-3-(hydroxymethyl)-4-(4-(trifluoromethyl)phenoxy)pyrrolidin-1-yl)sulfonyl)benzonitrile] | 10 to 100
23 | N#Cc1cc(Cl)ccc1S(=O)(=O)N1C[C@H](Oc2ccc(Cl)cc2)[C@@](O)(CO)C1 [Example 151, 5-chloro-2-(((3S,4S)-4-(4-chlorophenoxy)-3-hydroxy-3-(hydroxymethyl)pyrrolidin-1-yl)sulfonyl)benzonitrile] | 0.1 to 10
24 | N#Cc1cc(Cl)ccc1S(=O)(=O)N1C[C@H](Oc2ccc(C(F)(F)F)cc2)[C@@](O)(CO)C1 [Example 152, 5-chloro-2-(((3S,4S)-3-hydroxy-3-(hydroxymethyl)-4-(4-(trifluoromethyl)phenoxy)pyrrolidin-1-yl)sulfonyl)benzonitrile] | 0.1 to 10
25 | N#Cc1cc(F)ccc1S(=O)(=O)N1C[C@H](Oc2ccc(C(F)(F)F)cc2)[C@](O)(CO)C1 [Example 153, 5-fluoro-2-(((3R,4S)-3-hydroxy-3-(hydroxymethyl)-4-(4-(trifluoromethyl)phenoxy)pyrrolidin-1-yl)sulfonyl)benzonitrile] | 0.1 to 10
26 | N#Cc1cc(Cl)ccc1S(=O)(=O)N1C[C@H](Oc2ccc(Cl)cc2)[C@](O)(CO)C1 [Example 154, 5-chloro-2-(((3R,4S)-4-(4-chlorophenoxy)-3-hydroxy-3-(hydroxymethyl)pyrrolidin-1-yl)sulfonyl)benzonitrile] | 0.1 to 10
27 | N#Cc1cc(F)ccc1S(=O)(=O)N1C[C@H](Oc2ccc(Cl)cc2)[C@](O)(CO)C1 [Example 155, 2-(((3R,4S)-4-(4-chlorophenoxy)-3-hydroxy-3-(hydroxymethyl)pyrrolidin-1-yl)sulfonyl)-5-fluorobenzonitrile] | 0.1 to 10
28 | N#Cc1cc(Cl)ccc1S(=O)(=O)N1C[C@H](Oc2ccc(C(F)(F)F)cc2)[C@](O)(CO)C1 [Example 156, 5-chloro-2-(((3R,4S)-3-hydroxy-3-(hydroxymethyl)-4-(4-(trifluoromethyl)phenoxy)pyrrolidin-1-yl)sulfonyl)benzonitrile] | 0.1 to 10
29 | N#Cc1cc(OCC(F)(F)F)c(O[C@H]2CN(S(=O)(=O)c3ccc(C(F)(F)F)cc3C#N)C[C@@]2(O)CO)cc1F [Example 157, 4-(((3S,4R)-1-((2-cyano-4-(trifluoromethyl)phenyl)sulfonyl)-4-hydroxy-4-(hydroxymethyl)pyrrolidin-3-yl)oxy)-2-fluoro-5-(2,2,2-trifluoroethoxy)benzonitrile] | 0.1 to 10
30 | COc1cc(C#N)c(F)cc1O[C@H]1CN(S(=O)(=O)c2ccc(C(F)(F)F)cc2C#N)C[C@@]1(O)CO [Example 158, 4-(((3S,4R)-1-((2-cyano-4-(trifluoromethyl)phenyl)sulfonyl)-4-hydroxy-4-(hydroxymethyl)pyrrolidin-3-yl)oxy)-2-fluoro-5-methoxybenzonitrile] | 0.1 to 10
